From ChEMBL document CHEMBL1201862, “PubChem BioAssay data set” (2004)
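48-hour exposure; five concentrations; linearly interpolated endpoints. Here, GI50 denotes the concentration required for 50% inhibition of growth.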 Activity calls are given as the source filed them. No stated cut-off is given here; in the data, active = GI50 up to about 1.1 µM and inactive = higher.

Columns and labels:
Assay in all cases: NCI anticancer screen, dose series, 48 h
786-0 = system: 786-0
A498 = system: A498
COLO 205 = system: COLO 205
HCT-15 = system: HCT-15
HL-60 = system: HL-60
HT-29 = system: HT-29
LOX IMVI = system: LOX IMVI
M14 = system: M14
MOLT-4 = system: MOLT-4
NCI-H226 = system: NCI-H226
OVCAR-4 = system: OVCAR-4
OVCAR-5 = system: OVCAR-5
OVCAR-8 = system: OVCAR-8
RXF 393 = system: RXF 393
SF-295 = system: SF-295
SK-MEL-28 = system: SK-MEL-28
SK-MEL-2 = system: SK-MEL-2
SW-620 = system: SW-620
PC-3 = system: PC-3

SMILES	GI50 (786-0)	GI50 (A498)	GI50 (COLO 205)	GI50 (HCT-15) [µM]	GI50 (HL-60)	GI50 (HT-29)	GI50 (LOX IMVI)	GI50 (M14)	GI50 (MOLT-4)	GI50 (NCI-H226)	GI50 (OVCAR-4)	GI50 (OVCAR-5)	GI50 (OVCAR-8)	GI50 (RXF 393)	GI50 (SF-295)	GI50 (SK-MEL-28)	GI50 (SK-MEL-2)	GI50 (SW-620)	GI50 (PC-3)
COc1ccc(S(=O)(=O)N/N=C\c2cc([N+](=O)[O-])cc(I)c2O)c(OC)c1OC	24.7 µM (inactive)	29.8 µM (inactive)	21.4 µM (inactive)	22.3	26.6 µM (inactive)	32.2 µM (inactive)	32.5 µM (inactive)	28.4 µM (inactive)	25.1 µM (inactive)	17.3 µM (inactive)	28.4 µM (inactive)	32.4 µM (inactive)	34.4 µM (inactive)	20.8 µM (inactive)	30.6 µM (inactive)	24.5 µM (inactive)	21.4 µM (inactive)	39.8 µM (inactive)	
CC1=C(C(=O)Nc2ccccc2C)C(c2ccc([N+](=O)[O-])cc2)C(C(=O)Nc2ccccc2C)=C(C)N1	53.3 µM (inactive)	14 µM (inactive)	29.9 µM (inactive)	56.5	19.8 µM (inactive)	44.9 µM (inactive)	43.4 µM (inactive)	39.9 µM (inactive)	25.3 µM (inactive)	> 100 µM (inactive)	41.8 µM (inactive)	> 100 µM (inactive)	> 100 µM (inactive)	16.4 µM (inactive)	58.2 µM (inactive)	63.4 µM (inactive)	38.2 µM (inactive)	93.3 µM (inactive)	
CC(=O)C1CC=C(C)CC1 (stereo not given)	> 100 µM (inactive)	> 100 µM (inactive)	> 100 µM (inactive)	> 100	> 100 µM (inactive)	> 100 µM (inactive)	> 100 µM (inactive)	> 100 µM (inactive)	> 100 µM (inactive)	> 100 µM (inactive)	> 100 µM (inactive)	> 100 µM (inactive)	> 100 µM (inactive)	> 100 µM (inactive)	> 100 µM (inactive)	> 100 µM (inactive)	> 100 µM (inactive)	> 100 µM (inactive)	
O=C(CBr)N1CCC2(CC1)SSC1(CCN(C(=O)CBr)CC1)S2	0.614 µM (active)		0.368 µM (active)	1.44	1.59 µM (inactive)	1.81 µM (inactive)	0.064 µM (active)	1.53 µM (inactive)	0.159 µM (active)		2.02 µM (inactive)	1.39 µM (inactive)	1.93 µM (inactive)		1.94 µM (inactive)	2 µM (inactive)		0.332 µM (active)	1.84 µM (inactive)
COC1(OC)CCCCCCCCC(OC)(OC)CCCCCCCC1	> 100 µM (inactive)	> 100 µM (inactive)	> 100 µM (inactive)	> 100	> 100 µM (inactive)	> 100 µM (inactive)	> 100 µM (inactive)	> 100 µM (inactive)		> 100 µM (inactive)		> 100 µM (inactive)	> 100 µM (inactive)	> 100 µM (inactive)	> 100 µM (inactive)	> 100 µM (inactive)	> 100 µM (inactive)	> 100 µM (inactive)	> 100 µM (inactive)
CC(=O)O[C@]1(C)OC(=O)[C@@H](C)N1[N+](=O)[O-]	> 100 µM (inactive)	> 100 µM (inactive)	> 100 µM (inactive)	> 100	32.1 µM (inactive)	> 100 µM (inactive)	72.3 µM (inactive)	> 100 µM (inactive)	45.9 µM (inactive)	> 100 µM (inactive)	> 100 µM (inactive)	> 100 µM (inactive)	> 100 µM (inactive)	> 100 µM (inactive)	> 100 µM (inactive)	> 100 µM (inactive)	> 100 µM (inactive)	> 100 µM (inactive)	
C=C(C)[C@H](O)C(O)CC(C)[C@@H]1CCC23CC12CCC1[C@@]2(C)CCC(OC(C)=O)C(C)(C)C2CC(OC2OC(COC(C)=O)C(O)C(O)C2O)[C@]13C (stereo not given in full)	7.4 µM (inactive)	7.98 µM (inactive)	6.61 µM (inactive)	4.86	1.62 µM (inactive)	3.06 µM (inactive)	4.86 µM (inactive)	3.41 µM (inactive)	2.34 µM (inactive)	5.45 µM (inactive)	7.71 µM (inactive)	7.69 µM (inactive)	6.47 µM (inactive)	2.9 µM (inactive)	6.59 µM (inactive)	7.19 µM (inactive)	8.83 µM (inactive)	6.14 µM (inactive)	
Cc1cc(C(=C2C=CC(=[N+](C)C)C=C2)c2ccc([N+](C)(C)C)cc2)ccc1N(C)C	21.6 µM (inactive)	18.5 µM (inactive)	10.1 µM (inactive)	33	2.3 µM (inactive)	5.08 µM (inactive)	4.79 µM (inactive)	10.4 µM (inactive)	4.28 µM (inactive)	16 µM (inactive)	15.8 µM (inactive)	21.9 µM (inactive)	5.08 µM (inactive)	5.65 µM (inactive)	5.2 µM (inactive)	11.3 µM (inactive)	15.2 µM (inactive)	5.31 µM (inactive)	
